In patent US9539303B2, “Treatment of Ras-expressing tumors” (Celgene Corporation, priority 2006, dated 2017):
“And” between values parts separate entries of the source, which are not always exact repeats. Equal entries are not always repeated. “Also recorded” adds a separate entry of the source.

Assays:
p21^waf = assay: Tissue biomarker immunoblotting of PANC-1 xenograft tumors: p21waf; format: in vivo; settings: PANC-1 tumors at study completion; FK228 5 mg/kg Q4Dx3, gemcitabine 80 mg/kg Q3Dx4, or both
Description: (§1) Specimen Collection: […] Tumor xenograft tissue and serum specimens were obtained from in vivo studies performed by the Preclinical Research Laboratory at the completion of the experiments. […] Serum was obtained from whole blood and stored frozen at -70° C. Tissue Biomarkers: Tumor levels of acetylated histone-4, histone-4, […] were quantified by immunoblotting as described. Briefly, frozen tissue was pulverized under liquid nitrogen and homogenized in hypotonic lysis buffer. Small aliquots of the extracts were used for analysis of protein concentration by micro-BCA assay with bovine serum albumin as a protein standard. An equal amount of extracts containing about 20-50 μg protein was electrophoresed in SDS polyacrylamide gels. Proteins were transferred to ImmunoBlot PVDF membrane and were probed with appropriate primary and secondary antibodies. The chemiluminescence signal was captured by autoradiography, quantified by densitometry and expressed as a ratio of actin in each sample lane. For each biomarker, means and standard errors were calculated in each treatment group. […] Following quantitative analysis of biomarker levels in each sample, the results were normalized for b-actin and expressed as percentages of untreated controls. […]

[1] = Animal weight and drug toxicity, PANC-1 study
Source text: (§2) Model Information—Female nude mice (nu/nu) between 5 and 6 weeks of age weighing approximately 20 grams were obtained from Harlan, Inc. (Madison, Wis.). PANC-1, obtained from the ATCC, is a pancreas tumor cell line originating from a person^(1-2). BxPC-3, obtained from the American Type Culture Collection (ATCC), is a pancreas tumor cell line originating from a person^(3-4). PANC-1 Study: Animals were implanted subcutaneously (SC) by trocar with fragments of PANC-1 harvested from SC growing tumors in nude mice hosts. When tumors grew to approximately 135 cubic millimeters (mm^3) in size (17 days following implantation, animals were pair-matched by tumor size into treatment and control groups; each treatment group contained nine mice. BxPC-3 Study: Animals were implanted subcutaneously (SC) by trocar with fragments of BxPC-3 harvested from SC growing tumors in nude mice hosts. When tumors grew to approximately 85 cubic millimeters (mm^3) in size (19 days following implantation), animals were pair-matched by tumor size into treatment and control groups; each treatment group contained nine mice. Animals in both studies were ear-tagged and followed individually throughout the experiment.
(§3) Study Design and Dosing—Initial doses were administered on Day 1 following pair-matching; both experiments were carried out as tumor growth inhibition (TGI) studies. Animals were dosed intravenously (IV) via tail vein with FK228 once every four days for three treatments (Q4Dx3) or by intraperitoneal (IP) injection with gemcitabine once every three days for four treatments (Q3Dx4), either alone or in combination, at the doses listed below (Table 1). To serve as a negative control, FK228 vehicle (2% ethanol, 8% propylene glycol, 90% 0.9% saline) was injected on a Q4Dx3 schedule.
(§4) Animal Weights—Individual and group mean weights±SD and percent weight change through Day 25 (PANC-1) or Day 29 (BxPC-3) were recorded twice weekly until study completion beginning Day 1. Final group mean weights±SD and group nadir values are reported; weight data from individual animals experiencing technical or drug-related deaths was censored from final group calculations.
(§5) Moribundity/Mortality—Animals were observed twice weekly for general moribundity and daily for mortality. Animal deaths were assessed as drug-related or technical based on factors including gross observation and weight loss; reported animal death information includes type, number, and day of death for each group.

[2] = system: PANC-1 human pancreatic tumor xenograft; assay: PANC-1 human pancreatic tumor xenograft tumor growth inhibition study (Example 3); format: in vivo, female nude mice (nu/nu); settings: PANC-1 study
Source text: (§6) (Madison, Wis.). […] Tumor measurements were converted to cubic millimeter tumor volume using the formula^(5): […] TGI values for each treatment group are reported at study completion; these calculations are based on the final study day. […] Individual mice lacking palpable tumors were classified as undergoing complete regression (CR). Animals experiencing partial or complete tumor regressions were censored from TGI calculations. However, data from these animals was included in statistical analysis calculations. In addition, weight data from these animals was included in daily and final group calculations. Tumor Necrosis-Degree of tumor necrosis was rated at each tumor measurement using the following arbitrary index: […]

acetylated histone 4 = assay: Tissue biomarker immunoblotting of PANC-1 xenograft tumors: acetylated histone 4; format: in vivo; settings: PANC-1 tumors at study completion; FK228 5 mg/kg Q4Dx3, gemcitabine 80 mg/kg Q3Dx4, or both
Description: as §1

c-Myc = assay: Tissue biomarker immunoblotting of PANC-1 xenograft tumors: c-Myc; format: in vivo; settings: PANC-1 tumors at study completion; FK228 5 mg/kg Q4Dx3, gemcitabine 80 mg/kg Q3Dx4, or both; actin-normalized vs control
Description: as §1

[3] = Animal weight and drug toxicity, BxPC-3 study
Source text: as §2, §3, §4, §5

acetylated histone 3 = assay: Tissue biomarker immunoblotting of PANC-1 xenograft tumors: acetylated histone 3; format: in vivo; settings: PANC-1 tumors at study completion; FK228 5 mg/kg Q4Dx3, gemcitabine 80 mg/kg Q3Dx4, or both
Description: as §1

[4] = system: BxPC-3 human pancreatic tumor xenograft; assay: BxPC-3 human pancreatic tumor xenograft tumor growth inhibition study (Example 3); format: in vivo, female nude mice (nu/nu); settings: BxPC-3 study; for % TGI: Day 29
Source text: as §6

[5] = system: Panc-1 human pancreas tumors (oncogenic K-ras); assay: Panc-1 mouse xenograft model, tumor growth (Example 1); format: in vivo, female nude mice; settings: Panc-1 xenograft; N=9 mice per group
Description: In this study, female nude mice were implanted subcutaneously (SC) by trocar with Panc-1 tumor fragments harvested from SC growing tumors in nude mice hosts. […] The day of treatment initiation was specified as Day 1. Vehicle control and FK228 were administered intravenously on a […] schedule (Days 1, 5, and 9). Gemcitabine was administered by an intraperitoneal injection on a […] schedule (Days 1, 4, 7, 10). Tumors were measured by Vernier calipers twice weekly.

[6] = Day 25, Gemcitabine 40 mg/kg IP Q3Dx4
[7] = Day 25, Gemcitabine 80 mg/kg IP Q3Dx4
[8] = at the evaluated doses and schedules
[9] = Day 29, Gemcitabine 40 mg/kg IP Q3Dx4
[10] = Day 29, Gemcitabine 80 mg/kg IP Q3Dx4

Structure (SMILES): Nc1ccn([C@@H]2O[C@H](CO)[C@@H](O)C2(F)F)c(=O)n1 [Gemcitabine, gemcitabine]
- p21^waf expression (p21^waf): downregulated; also recorded: down-regulated
- Final weight data % change [1, 6]: +7%
- Final weight data mean ± SD [1, 6]: 24±1 G
- Final weight data % change [1, 7]: +12%
- Final weight data mean ± SD [1, 7]: 26±3 G
- Drug deaths total ([1]; Gemcitabine 40 mg/kg IP Q3Dx4): 0/9 and 0
- Weight nadir % change ([1]; Gemcitabine 40 mg/kg IP Q3Dx4): −2%
- Weight nadir day ([1]; Gemcitabine 40 mg/kg IP Q3Dx4): 11
- Drug deaths total ([1]; Gemcitabine 80 mg/kg IP Q3Dx4): 0/9 and 0
- Weight nadir % change ([1]; Gemcitabine 80 mg/kg IP Q3Dx4): −3%
- Weight nadir day ([1]; Gemcitabine 80 mg/kg IP Q3Dx4): 11
- #PR/CR ([2]; Gemcitabine 40 mg/kg IP Q3Dx4): 1/9 and 1/0
- Activity according to NCI standards ([2]; Gemcitabine 40 mg/kg IP Q3Dx4): inactive
- Tumor necrosis ([2]; Gemcitabine 40 mg/kg IP Q3Dx4): 1/9 animals reported mild tumor necrosis and 4/9 reported moderate necrosis
- #PR/CR ([2]; Gemcitabine 80 mg/kg IP Q3Dx4): 0/9 and 0/0
- % TR ([2]; Gemcitabine 80 mg/kg IP Q3Dx4): 0%
- Activity according to NCI standards ([2]; Gemcitabine 80 mg/kg IP Q3Dx4): inactive
- Tumor necrosis ([2]; Gemcitabine 80 mg/kg IP Q3Dx4): 1/9 animals reported slight tumor necrosis, 2/9 reported mild tumor necrosis, and 1/9 reported moderate necrosis
- calculated TGI values [2, 8]: less than 58%
- levels of acetylated histone 4 vs control (acetylated histone 4): on the control level
- extent of inhibition of c-Myc expression (c-Myc): 50%
- Final weight data % change [3, 9]: +9%
- Final weight data mean ± SD [3, 9]: 25±3 G
- Final weight data % change [3, 10]: +1%
- Final weight data mean ± SD [3, 10]: 22±4 G
- Drug deaths total ([3]; Gemcitabine 40 mg/kg IP Q3Dx4): 0/9 and 0
- Weight nadir % change ([3]; Gemcitabine 40 mg/kg IP Q3Dx4): No weight loss
- Drug deaths total ([3]; Gemcitabine 80 mg/kg IP Q3Dx4): 0/9 and 0
- Weight nadir % change ([3]; Gemcitabine 80 mg/kg IP Q3Dx4): −9%
- Weight nadir day ([3]; Gemcitabine 80 mg/kg IP Q3Dx4): 11
- acetylation of histone 3 (acetylated histone 3): significantly inhibited
- % TGI ([4]; Gemcitabine 40 mg/kg IP Q3Dx4): 20%
- % TGI ([4]; Gemcitabine 80 mg/kg IP Q3Dx4): 9%
- #PR/CR ([4]; Gemcitabine 40 mg/kg IP Q3Dx4): 0/9 and 0/0
- Activity according to NCI standards ([4]; Gemcitabine 40 mg/kg IP Q3Dx4): inactive
- Tumor necrosis ([4]; Gemcitabine 40 mg/kg IP Q3Dx4): 1/9 animals reported severe tumor necrosis
- #PR/CR ([4]; Gemcitabine 80 mg/kg IP Q3Dx4): 0/9 and 0/0
- Activity according to NCI standards ([4]; Gemcitabine 80 mg/kg IP Q3Dx4): inactive
- Tumor necrosis ([4]; Gemcitabine 80 mg/kg IP Q3Dx4): 1/9 animals reported mild tumor necrosis
- calculated TGI values [4, 8]: less than 58%
- tumor regression [5]: no regression
